The record followed here is PMC5848165 (Toxins, 2018).

In one assay the test system is Nav1.4. Nature of the assay: Whole-cell patch clamp, Nav1.4 in HEK293 cells. It counts as cell-based, rat. As to conditions: 1 µM, −10 mV from −80 mV. From the text:
Nine sodium channel subtypes have been identified and classified as TTX-S (Nav1.1–Nav1.4, Nav1.6, and Nav1.7) or TTX-R types (Nav1.5, Nav1.8, and Nav1.9). […] However, the subtype selectivity of JZTX-34 on the subtype of sodium channel is still unknown. In this work, effects of JZTX-34 on VGSC subtypes (Nav1.1–Nav1.8) were examined. Nav1.1–Nav1.7 were transfected into HEK293 cells and Nav1.8 currents were expressed in ND cells. Inward sodium currents were elicited by a 50 ms depolarizing potential to −10 mV from a holding potential of −80 mV every 5 s. […] No effects on other sodium channel subtypes were found (Nav1.1, Nav1.2, Nav1.4–Nav1.6, and Nav1.8) (Figure S2). […]
(§1) The HEK293T cells were maintained in standard culture conditions (5% CO2 and 37 °C). […] After culturing for 36–72 h, cells with obvious green fluorescence were selected for sodium currents recordings the internal solution for sodium currents recording that contained (in mM) 140 CsF, 5 NaCl, 10 HEPES, 3 Na2-ATP, and 10 EGTA. […]
(§2) Sodium currents were recorded from DRG, HEK293, and ND cells by the whole-cell patch-clamp technique at 25 °C. […] Experiments date were acquired from whole-cell Axon 700B patch clamp amplifier (Molecular Devices, Sunnyvale, CA, USA) and analyzed by the program Clampfit10.0 (Molecular Devices, Sunnyvale, CA, USA) and Sigmaplot. […]
For orientation: Patch clamp records ionic current or voltage across a cell membrane.

Another assay has as its target T1, hNav1.7 (Homo sapiens, UniProt Q15858).
T1 construct: expressed in transfected cells; host or cells: HEK293 (HEK293T) cells, transient
Nature of the assay: Whole-cell patch clamp, WT Nav1.7 in HEK293 cells. It counts as cell-based.
Description: Nine sodium channel subtypes have been identified and classified as TTX-S (Nav1.1–Nav1.4, Nav1.6, and Nav1.7) or TTX-R types (Nav1.5, Nav1.8, and Nav1.9). […] However, the subtype selectivity of JZTX-34 on the subtype of sodium channel is still unknown. In this work, effects of JZTX-34 on VGSC subtypes (Nav1.1–Nav1.8) were examined. Nav1.1–Nav1.7 were transfected into HEK293 cells and Nav1.8 currents were expressed in ND cells. Inward sodium currents were elicited by a 50 ms depolarizing potential to −10 mV from a holding potential of −80 mV every 5 s. […] No effects on other sodium channel subtypes were found (Nav1.1, Nav1.2, Nav1.4–Nav1.6, and Nav1.8) (Figure S2).
Figure 2 Selectivity of JZTX-34 on sodium channel subtypes. All inward sodium channels were elicited by a 50 ms depolarizing potential to −10 mV from a holding potential of −80 mV every 5 s. One μM JZTX-34 was added to rNav1.3. (A) hNav1.7. (B,C) Dose-dependent inhibition of JZTX-34 on rNav1, rNav3, and hNav1.7 (n = 5). […]
as §1, §2
Data from Axon 700B patch clamp were analyzed by Clampfit10.0 (Molecular Devices, Sunnyvale, CA, USA). […] The G-V curves were obtained by calculating the conductance (G) at each voltage (V) using the equation G = I/(V1 − Vrev), with Vrev being the reversal potential determined for each cell individually. […] All the results from patch clamp and animal models are expressed as means ± standard error of the mean (SEM). […]

Residues, ends and D or L forms follow the SMILES beside them.

T1 sequence (Q07699 19-218): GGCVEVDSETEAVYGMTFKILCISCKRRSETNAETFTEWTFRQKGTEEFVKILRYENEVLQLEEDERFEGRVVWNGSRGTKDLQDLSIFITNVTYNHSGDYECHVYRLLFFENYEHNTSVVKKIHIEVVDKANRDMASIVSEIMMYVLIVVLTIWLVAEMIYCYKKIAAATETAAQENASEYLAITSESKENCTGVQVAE
T1 sequence (Q15858 other isoform, or with tags, fused parts or gaps): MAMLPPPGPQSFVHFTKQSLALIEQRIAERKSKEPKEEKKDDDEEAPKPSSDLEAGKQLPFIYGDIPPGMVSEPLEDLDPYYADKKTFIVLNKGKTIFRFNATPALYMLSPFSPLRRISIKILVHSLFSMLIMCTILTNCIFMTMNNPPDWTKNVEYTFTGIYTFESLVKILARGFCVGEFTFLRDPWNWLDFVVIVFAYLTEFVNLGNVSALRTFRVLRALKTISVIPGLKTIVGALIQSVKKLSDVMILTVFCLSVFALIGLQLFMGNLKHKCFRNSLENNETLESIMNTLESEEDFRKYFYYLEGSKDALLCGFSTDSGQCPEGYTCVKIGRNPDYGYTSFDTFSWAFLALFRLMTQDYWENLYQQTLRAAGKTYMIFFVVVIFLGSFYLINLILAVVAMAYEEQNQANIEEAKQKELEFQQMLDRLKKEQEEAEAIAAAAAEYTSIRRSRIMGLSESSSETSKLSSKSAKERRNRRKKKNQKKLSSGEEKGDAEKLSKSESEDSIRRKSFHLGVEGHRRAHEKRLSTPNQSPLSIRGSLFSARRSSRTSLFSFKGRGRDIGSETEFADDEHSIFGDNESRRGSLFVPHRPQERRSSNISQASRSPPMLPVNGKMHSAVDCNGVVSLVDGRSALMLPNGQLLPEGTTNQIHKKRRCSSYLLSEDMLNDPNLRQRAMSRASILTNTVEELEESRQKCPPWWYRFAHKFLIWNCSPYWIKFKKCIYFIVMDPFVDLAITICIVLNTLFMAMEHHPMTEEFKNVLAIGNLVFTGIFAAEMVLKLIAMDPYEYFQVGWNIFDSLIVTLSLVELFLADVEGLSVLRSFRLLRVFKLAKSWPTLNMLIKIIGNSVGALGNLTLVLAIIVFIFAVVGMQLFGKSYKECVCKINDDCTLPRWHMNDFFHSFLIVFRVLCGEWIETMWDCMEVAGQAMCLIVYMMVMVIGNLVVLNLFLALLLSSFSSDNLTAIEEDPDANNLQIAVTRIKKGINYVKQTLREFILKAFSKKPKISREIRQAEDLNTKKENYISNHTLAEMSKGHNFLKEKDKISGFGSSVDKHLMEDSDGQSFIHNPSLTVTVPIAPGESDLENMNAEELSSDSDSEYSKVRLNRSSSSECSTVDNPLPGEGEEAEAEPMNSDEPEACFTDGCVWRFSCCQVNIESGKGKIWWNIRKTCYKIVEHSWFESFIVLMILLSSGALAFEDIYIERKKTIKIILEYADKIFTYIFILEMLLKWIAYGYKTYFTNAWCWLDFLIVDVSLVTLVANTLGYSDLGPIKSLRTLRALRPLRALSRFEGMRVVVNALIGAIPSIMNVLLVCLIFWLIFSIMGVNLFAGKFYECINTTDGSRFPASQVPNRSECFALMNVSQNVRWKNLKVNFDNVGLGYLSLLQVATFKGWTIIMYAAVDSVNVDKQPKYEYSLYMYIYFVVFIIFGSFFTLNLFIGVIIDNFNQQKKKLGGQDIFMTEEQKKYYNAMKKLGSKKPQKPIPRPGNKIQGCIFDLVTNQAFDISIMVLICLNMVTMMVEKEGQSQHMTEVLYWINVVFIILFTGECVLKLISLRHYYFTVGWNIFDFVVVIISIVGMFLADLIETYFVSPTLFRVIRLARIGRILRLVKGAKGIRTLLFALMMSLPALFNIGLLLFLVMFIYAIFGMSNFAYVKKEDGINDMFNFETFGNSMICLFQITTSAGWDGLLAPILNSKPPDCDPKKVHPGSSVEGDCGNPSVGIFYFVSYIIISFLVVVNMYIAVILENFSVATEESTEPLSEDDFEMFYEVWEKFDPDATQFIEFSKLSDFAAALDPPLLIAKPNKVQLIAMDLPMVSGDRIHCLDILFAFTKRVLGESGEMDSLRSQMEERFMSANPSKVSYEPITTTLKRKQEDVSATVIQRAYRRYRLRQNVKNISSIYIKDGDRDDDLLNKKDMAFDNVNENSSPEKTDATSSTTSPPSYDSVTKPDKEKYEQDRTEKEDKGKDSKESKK

In general, inhibition refers to the change of the read-out against control, counted positive when it falls. What is called IC50 is the point on the concentration scale where inhibition reaches its midpoint. Consider `CC(C)C[C@@H]1NC(=O)[C@H](Cc2c[nH]c3ccccc23)NC(=O)[C@H](CCC(=O)O)NC(=O)[C@H](CCCNC(=N)N)NC(=O)[C@@H](NC(=O)[C@H](C)N)CSSC[C@@H]2NC(=O)[C@@H]3CSSC[C@@H](C(=O)N[C@H](C(=O)N[C@@H](Cc4c[nH]c5ccccc45)C(=O)N[C@@H](CC(=O)O)C(=O)N[C@@H](Cc4c[nH]c5ccccc45)C(=O)N[C@H](C(=O)N[C@H](C(=O)O)C(C)C)[C@@H](C)O)C(C)C)NC(=O)[C@H](Cc4c[nH]cn4)NC(=O)[C@H](Cc4ccc(O)cc4)NC(=O)[C@@H]4CCCN4C(=O)[C@H](Cc4c[nH]c5ccccc45)NC(=O)[C@H](CCCCN)NC(=O)[C@H](CCCCN)NC(=O)[C@H](CCCNC(=N)N)NC(=O)[C@H](CSSC[C@H](NC(=O)CNC(=O)CNC1=O)C(=O)N[C@@H](CO)C(=O)N[C@@H](CCCCN)C(=O)N[C@@H](CC(=O)O)C(=O)N[C@@H](C)C(=O)N[C@@H](CC(=O)O)C(=O)N3)NC(=O)[C@H](CCC(=O)O)NC(=O)[C@H](CC(C)C)NC(=O)[C@H](Cc1c[nH]cn1)NC(=O)[C@H](C)NC2=O` [JZTX-34, Jingzhaotoxin-34] (HELM PEPTIDE1{A.C.R.E.W.L.G.G.C.S.K.D.A.D.C.C.A.H.L.E.C.R.K.K.W.P.Y.H.C.V.W.D.W.T.V}$PEPTIDE1,PEPTIDE1,2:R3-16:R3|PEPTIDE1,PEPTIDE1,9:R3-21:R3|PEPTIDE1,PEPTIDE1,15:R3-29:R3$$$V2.0; N-terminus and C-terminus assumed), for which the “effect on Nav1.4 currents” value in the assay on Nav1.4 is “No effects”. Further, the inhibition at 1 µM at hNav1.7 (1 µM, mutant comparison experiment (Figure 4), read-out: inhibition of WT Nav1.7 currents) is 54.3 ± 5.2%. Further, at hNav1.7 (1 µM, −10 mV from −80 mV holding, mean ± S.E., subtype selectivity experiment (Figure 2)), the “reduction of Nav1.7 currents” value was found to be 54.6 ± 5.3%. Further, the IC50 on hNav1.7 (−10 mV from −80 mV holding, Hill fit, n = 5) came out at 610 nM.
